Data published in US20190262371A1, “METHODS AND COMPOSITION FOR THE TREATMENT OF RNA VIRAL INFECTIONS” (The Regents of the University of California, priority 2016, published 2019).

Tested on: ZIKV (MR766)
Experiment: Inhibitor activity analysis: effect of methyltransferase inhibitors on ZIKV replication in a microglial cell line (supernatant one-step qRT-PCR)
Assay type: cell-based, ZIKA virus
Conditions: assay not given, presumably ZIKV inhibition, 10 μM, MOI 1, 24 h / 48 h, normalized to DMSO
Procedure: FIG. 7. Microglial cell-line was plated 1×10^6 cells per well in 24 well plate and cultured for 24 h. Cell were then treated in triplicate with series of methyltransferase inhibitors ([…]) for one hour followed by infection with ZIKV (MR766, MOI: 1) and changed the fresh medium after 2 hrs of ZIKV infection and re-added the drugs. After 24 h of the infection, we collected the supernatant and did one-step qRT-PCR. Fold inhibition of ZIKV infection was normalized from DMSO control.
FIG. 8. Microglial cell-line was plated 1×10^6 cells per well in 24 well plate and cultured for 24 h. […]
Effects of methyltransferase inhibitors on ZIKV replication was monitored using previously published methods (Dang, J., Tiwari, S. K., Lichinchi, G., Qin, Y., Patil, V. S., Eroshkin, A. M., and Rana, T. M. (2016); Zika Virus Depletes Neural Progenitors in Human Cerebral Organoids through Activation of the Innate Immune Receptor TLR3. Cell Stem Cell 19, 258-265; Lichinchi, G., Zhao, B. S., Wu, Y., Lu, Z., Qin, Y., He, C., and Rana, T. M. (2016). Dynamics of Human and Viral RNA Methylation during Zika Virus Infection. Cell Host Microbe 20, 666-673; Tiwari, S. K., Dang, J., Qin, Y., Lichinchi, G., Bansal, V., and Rana, T. M. (2017), which are incorporated herein in their entirety for all purposes). […]

## Nc1ncnc2c1ncn2C1OC(CNCCn2c3ccccc3c3ccccc32)C(O)C1O (stereo not shown) [TR-H-08]
  activity (found to be an active compound): active
